According to patent publication US20220106596A1, “A METHOD OF GENE EDITING” (University of Washington, priority 2019, published 2022):

Columns and labels:
[1] = test system: HT-1080 cells with LHSN63D530 provirus and HPRT exon3D4; assay: HPRT gene editing in HT-1080 cells infected with AAV2-HPe3 (HAT selection), effect of emetine; assay type: cell-based, human
Source text: (§1) The murine leukemia virus (MLV) vector LHSN63Δ53O contains a nonfunctional neomycin phosphotransferase target gene (neo) with a 53-bp deletion at nucleotide 63 of its open reading frame, a hygromycin phosphotransferase gene (hph) for selection, and a plasmid replication origin for recovering the target sites.
(§2) In some embodiments, a cell is gene edited using the HT-1080 (human fibrosarcoma cells) gene editing assay. This method uses HT-1080 neo/HPRT editing cells transduced with LHSN63Δ53O. HT-1080 cells contain an integrated copy of an MLV LHSN63Δ530 targeting locus and a 4 by deletion in the single copy, X-linked HPRT gene at exon 3. The cells are transduced with AAV2-HSN5′ and cultured in G418 to identify neo gene-edited cells. The AAV2-HSN5′ gene targeting vector contains sequences homologous to MLV-LHSN63Δ53O with a truncated neo gene that lacks the 53 by deletion. Alternatively, HT-1080 cells are transduced with AAV2-HPe3 targeting vector and selected with HAT medium to identify HPRT gene-edited cells (See Russell et al., 2008, Human Gene Therapy, 19: 907-914 and Deyle et al., 2014, Nature Structural & Molecular Biol., 21: 969-975). Targeted clones are expanded as a polyclonal population. Untargeted control cells are generated by transducing HT-1080 cells with the MLV vector LHSNO, which is identical to LHSN63Δ53O except that it contains a functional neo gene.
(§3) To determine the effect of emetine on gene editing, experiments were performed using human HT-1080 cells with LHSN63Δ530 provirus and HPRT exon 3Δ4, infected with AAV2-HSN5′ or AAV2-HPe3. Replicate samples of cells were treated under the following conditions: • AAV (MOI 2×10^4) alone for 24 hours; • 0.125 μM emetine for 8 hours followed by the addition of AAV (MOI 2×10^4) and incubation for 24 hours; • 0.25 μM emetine for 24 hours followed by the addition of AAV (MOI 2×10^4) and incubation for 24 hours; • 0.25 μM emetine for 24 hours followed by the addition of AAV (MOI 2×10^4) and incubation with AAV for 24 hours; • 0.25 μM emetine in the presence of AAV (MOI 2×10^4) for 24 hours; • AAV (MOI-2×10^4) for 8 hours followed by the addition of 0.25 μM emetine and incubation with emetine for 23 hours; • AAV (MOI-2×10^4) for 24 hours followed by the addition of 0.25 μM emetine and incubation with emetine for 8 hours; • AAV (MOI-2×10^4) for 8 hours followed by the addition of emetine (0.25 μM) and incubation with emetine for 18 hours, removal of emetine, followed by addition of a second dosage of emetine (0.25 μM) and incubation for 16 hours; or • AAV (MOI 2×10^4) for 24 hours followed by the addition of emetine (0.25 μM) and incubation for 7 hours, removal of emetine, followed by addition of a second dosage of emetine (0.25 μM) for 2 hours.
(§4) For each experiment, 2×10^4 cells were seeded and cultured in the presence of 4×10^8 AAV. All experiments were performed in DMEM+10% FBS+pen/strep. Emetine dihydrochloride hydrate: E2375 (Sigma) was prepared in water and sterilized by filtration on 0.22 uM filter.

[2] = test system: HT-1080 cells with LHSN63D530 provirus and HPRT exon3D4; assay: neo gene editing in HT-1080 cells infected with AAV2-HSN5′ (G418 selection), effect of emetine; assay type: cell-based, human
Source text: as §1, §2, §3, §4

[3] = test system: mouse liver; assay: In vivo gene editing of mouse liver with AAVDj-mALB-luciferase (bioluminescence imaging); parameters: species or system C57BL/6 mice; details: emetine 5 mg/kg intraperitoneal, days 1-5, FIG. 3
Method: To determine the effect of emetine on gene editing in vivo, experiments were performed using C57BL/6 mice.
[…]. On day 0, 5 mice (Group I), were given AAVDj-mALB-luciferase vector at an amount of 3×10^11 vg/mouse by retro orbital injection. Gene editing of the AAVDj-mALB-luciferase vector results in an albumin locus knock-in and luciferase expression. 5 mice (Group 2) were injected with AAVDj-mALB-luciferase vector, at an amount of 3×10^11 vg/mouse by retro orbital injection, and given emetine in DPBS, at a concentration of 5 mg/kg, by intraperitoneal injection. 5 mice (Group 3) were injected only with emetine at a concentration of 5 mg/kg, by intraperitoneal injection.
Emetine was administered to Groups 2 and 3 on days 1-5. On days 8, […] and 22, in vivo imaging in the presence of 15 mg/kg D-luciferin, administered by intraperitoneal injection, was performed to determine the occurrence of editing. Following D-luciferin administration, the mice were anesthetized with isoflurane and placed in an IVIS imager and the peak bioluminescence was recorded (Gornalusse et al., 2017, Nature Biotech, 35(8): 765-772). […] At days 15 and 22, a 1.6 and 1.4 fold increase, respectively, were observed.

[4] = test system: mouse Hepa1-6 hepatoma cells; assay: Gene editing (albumin knock-in, GFP expression by flow cytometry) with AAVDJ-mAlb-GFP; assay type: cell-based; details: 1000 nM emetine
Method: To determine the effect of emetine on gene editing, experiments were performed using mouse Hepa1-6 hepatoma cells using the vector AAVDJ-mAlb-GFP. Gene editing in the presence of this vector results in an albumin knock-in with resulting expression of green fluorescent protein (GFP).
On day 0, 100,000 cells were plated in 1.5 ml DMEM with 10% FBS, 100 units/mL penicillin and 100 μg/mL streptomycin. On day 1, cells were transduced with AAVDJ-mAlb-GFP (multiplicity of (MOI)—50,000) by removing the media and adding to the cells 1.5 ml of fresh media (DMEM with 10% FBS, 100 units/mL penicillin, 100 μg/mL streptomycin) containing the desired MOI of the AAVDJ-mAlb-GFP virus. For 100,000 cells, to achieve an MOI of […] were added.
On day 2, fresh medium (1.5 ml of DMEM with 10% FBS, 100 units/mL penicillin, 100 μg/mL streptomycin) with or without emetine, was added. Replicate samples were treated with no emetine, or with 30 nM emetine, 100 nM emetine or 1000 nM emetine. A control sample lacked AAV. On day 3, the media was removed and 1.5 ml of DMEM with 10% FBS, 100 units/mL penicillin, 100 μg/mL streptomycin was added to the cells. Expression of GFP was measured on days 6, 7 and 10.
Flow cytometry was used to measure GFP expression. On the day of the assay (days 6, 7 and 10) cells were trypsinized and the resulting cell pellet was resuspended in 500 μL of FACS buffer (DPBS (Dulbecco's Phosphate Buffered Saline) without Ca2+, Mg2+, and supplemented with 2% FBS, 1 mM EDTA). The resulting cell suspension was analyzed for GFP positive cells on the BD FACScanto II. For samples treated with no AAV, 0 nM emetine, 30 nM emetine, and 100 nM emetine, 100,000 cells were analyzed, and for samples treated with 1000 nM emetine, 70,000 cells were analyzed.

[5] = test system: HT-1080/neo/HPRT editing lines; assay: neo gene editing (G418 selection) after shRNA inhibition of selected replication fork proteins; assay type: cell-based, human; details: shRNA induced 24 hours with doxycycline (1 μg/ml); AAV-HSN MOI 2×10^4
Method: (§5) To determine the effect of shRNA specific for selected replication fork proteins on gene editing, experiments were performed using the HT-1080/neo/HPRT editing lines. Each gene indicated in Table 8 below was inhibited with a shRNA (sequences provided in Table 7 below) expressed from a lentivirus vector.
(§6) HPRT and neo gene editing frequencies were measured by G418 or HAT selection and normalized to a cell that was not treated with a shRNA.
(§7) Cells were first transduced with a lentivirus expressing a shRNA specific for the targeted genes. 2×10^4 HT-1080 cells transduced with the specific shRNAs were then plated in 6-well plates on day 1, and the expression of the shRNA was induced for 24 hours with doxycycline (1 μg/ml). On day 2, cells were transduced with AAV-HSN or AAV-HPe3 at a MOI of 2×10^4. On day 4, the cells were treated with trypsin and 0.1% of the cells were replated without selection in 6-well plates to determine the number of colony forming units. The remainder of the cells were replated in 6-well plates for further analysis of gene editing frequency.
(§8) On day 5, neo gene correction experiments were performed by the addition of G418 (700 ug/ml) to the experimental plates. On day 16, plates were washed with PBS and the colonies were stained with Coomassie brilliant blue G. The percentage of neo gene correction was calculated as the number of G418-resistant CFU per total CFU for each original well. On day 6, HPRT gene correction experiments were performed by adding 1× HAT (hypoxanthine-aminopterin-thymidine medium) to the experimental plates. On day 16, plates were washed with PBS and the colonies were stained with Coomassie brilliant blue G. The percentage of HPRT gene correction was calculated as the number of HAT-resistant CFU per total CFU for each original well.

[6] = test system: HT-1080/neo/HPRT editing lines; assay: HPRT gene editing (HAT selection) after shRNA inhibition of selected replication fork proteins; assay type: cell-based, human; details: shRNA induced 24 hours with doxycycline (1 μg/ml); AAV-HPe3 MOI 2×10^4
Method: as §5, §6, §7, §8

[7] = 0.125 μM emetine for 8 hrs before adding AAV
[8] = 0.25 μM emetine for 24 hrs before adding AAV
[9] = 0.25 μM emetine for 24 hrs before adding AAV + 24 hrs with AAV
[10] = 0.25 μM emetine for 24 hrs with AAV
[11] = AAV for 8 hrs, then added 0.25 μM emetine for 23 hrs
[12] = AAV for 8 hrs, then added emetine for 18 hrs, then removed emetine for 8 hrs, then added emetine for 16 hrs
[13] = AAV for 24 hrs then with 0.25 μM emetine for 8 hrs
[14] = AAV for 24 hrs, then emetine for 7 hrs, then removed emetine for 16 hrs, then added emetine for 2 hrs

With `CC[C@H]1CN2CCc3cc(OC)c(OC)cc3[C@@H]2C[C@@H]1C[C@H]1NCCc2cc(OC)c(OC)cc21` [emetine] the “Fold increase in editing frequency due to emetine, % HATR/% HAR no emetine” value (shortened to “Fold increase … % HATR/% HAR no emetine”) [1, 7] was 8.39 Fold, the “Fold increase … % HATR/% HAR no emetine” value [1, 8] was 7.25 Fold and the “Fold increase … % HATR/% HAR no emetine” value [1, 9] was 11.19 Fold. The “Fold increase … % HATR/% HAR no emetine” value [1, 10] was 8.39 Fold, the “Fold increase … % HATR/% HAR no emetine” value [1, 11] was 1.99 Fold and the “Fold increase … % HATR/% HAR no emetine” value [1, 12] was 2.88 Fold. For the same molecule, the “Fold increase … % HATR/% HAR no emetine” value [1, 13] was 1.63 Fold, the “Fold increase … % HATR/% HAR no emetine” value [1, 14] was 1.56 Fold and the “Fold increase in editing frequency due to emetine, % G4158R emetine/% G418R no emetine” value [2, 7] was 2.40 Fold. The “Fold increase in editing frequency due to emetine, % G4158R emetine/% G418R no emetine” value [2, 8] was 3.82 Fold, the “Fold increase in editing frequency due to emetine, % G4158R emetine/% G418R no emetine” value [2, 9] was 6.64 Fold and the “Fold increase in editing frequency due to emetine, % G4158R emetine/% G418R no emetine” value [2, 10] was 3.70 Fold. The “Fold increase in editing frequency due to emetine, % G4158R emetine/% G418R no emetine” value [2, 11] was 1.96 Fold, the “Fold increase in editing frequency due to emetine, % G4158R emetine/% G418R no emetine” value [2, 12] was 8.47 Fold and the “Fold increase in editing frequency due to emetine, % G4158R emetine/% G418R no emetine” value [2, 13] was 1.94 Fold. For the same molecule, the “Fold increase in editing frequency due to emetine, % G4158R emetine/% G418R no emetine” value [2, 14] was 2.63 Fold, the “increase in level of gene editing in vivo in mouse liver (peak bioluminescence) as compared to mice treated with AAV alone” value (shortened to “increase in level of gene editing”) ([3]; day 8) was 2.3 fold and the “increase in level of gene editing” value ([3]; day 15) was 1.6 fold. For the same molecule, the “increase in level of gene editing” value ([3]; day 22) was 1.4 fold, the “increase in expression of GFP” value ([4]; day 6, FIG. 2) was 22 fold and the “increase in expression of GFP” value ([4]; day 7, FIG. 2) was 12 fold. For the same molecule, the “increase in expression of GFP” value ([4]; day 10, FIG. 2) was 3 fold.

B1: Sh40: shRNA cloned in pTRIPZ (Dharmacon), target gene RMI1/BLAP75; SEQ ID NO: 105 (nucleic acid)
chain: GTTGACAGTGAGCGTGATCTAGTTACAGCTGAAGCATAGTGAAGCCACAGATGTATGCTTCAGCTGTAACTAGATCATGCCTACTGCCTC
With B1 the “G418 (neo) gene editing frequency normalized to a cell not treated with a shRNA” value [5] was 1.37 and the “HAT (HPRT) gene editing frequency normalized to a cell not treated with a shRNA” value [6] was 1.61.
